Measured values published in article PMC10053369, “Recombinant Analogs of Sea Anemone Kunitz-Type Peptides Influence P2X7 Receptor Activity in Neuro-2a Cells” (Marine Drugs, 2023).

Legend:
Neuro-2a cells = assay: Cytoprotection against ATP-induced cell death (MTT assay); format: cell-based, mouse
Method: (§1) Neuro-2a neuroblastoma cells (ATCC® CCL-131™) were obtained from American Type Culture Collection (Manassas, VA, USA). The cells were cultivated in DMEM medium (BioloT, St. Petersburg, Russia) supplemented with 10% of fetal bovine serum (BioloT, St. Petersburg, Russia) and 1% penicillin/streptomycin (BioloT, St. Petersburg, Russia) at 37 °C and 5% CO2. Initially, cells were incubated in cultural flasks until sub-confluent (~80%). For testing, Neuro-2a cells were seeded in 96-well plates and experiments were started after 24 h.
The cytoprotective effect of peptides was assessed in Neuro-2a cells using the MTT assay. In brief, an aliquot (180μL) of cell suspension with a nominal cell density of 3 × 10^4 cells/well was dispensed into 96-well plates. The cells were incubated for 24 h in a humidified atmosphere containing 5% CO2 to allow cell attachment. At the end of the preincubation period, ATP (Sigma-Aldrich, St. Louis, MO, USA) was added to the cells at a concentration of 4 mM. Studied peptides were added to the cells at concentrations of 0.1, 1.0 or 10.0 μM for 1h prior to the addition of ATP. After incubation for 48 h at 37 °C cell viability was detected using the MTT as described previously. The standard P2X7 inhibitor, A438079 (Sigma-Aldrich, St. Louis, MO, USA), at a concentration of 10 μM was used as a positive control.
(§2) All data were obtained in three independent replicates and calculated values were expressed as mean ± standard error of the mean (SEM). The Student’s t-test was performed using SigmaPlot 14.0 (Systat Software Inc., San Jose, CA, USA) to determine statistical significance.

TRPV1 receptor = conditions: modulator of TRPV1, depends on nature and strength of activation stimuli; ref [14],[17],[18],[21],[38],[39],[40]; cited from earlier work
Excerpt: (§3) The studied peptides are analogs of sea anemone Kunitz-type peptides and attract our attention due to their wide spectrum of biological activity and ability to interact with important molecular targets.

[1] = ref [14],[17],[18],[21],[38],[39],[40], cited from earlier work
Excerpt: as §3

P2X7 in Neuro-2a cells [2] = assay: ATP-induced Ca2+ influx (Fluo-8 AM); format: cell-based, mouse; conditions: for reduction of calcium level: 30 min pre-incubation, 1 mM ATP
Method: as §1
Neuro-2a cells were seeded in 96-well plates at a density of 4 × 10^4 cells/well and incubated in DMEM for 24 h at 37 °C, 5% CO2. Then the cells were washed twice with culture medium and loaded with 5 μM Fluo-8 AM (Abcam, Cambridge, UK) dye and 1 μM Pluronic® F-127 (Sigma-Aldrich, St. Louis, MO, USA), and incubated for 40 min at 37 °C in HBSS: 140 mM NaCl, 5 mM KCl, 0.8 mM MgCl2, 2 mM CaCl2, 10 mM glucose, 10 mM HEPES, pH 7.4. Then the cells were washed two times with the same solution but without the fluorescent dye and treated with the studied peptides for 30 min at RT in the dark. In some experiments Ca^2+-free medium was used: 140 mM NaCl, 5 mM KCl, 0.8 mM MgCl2, 10 mM glucose, 10 mM HEPES, 5 mM EGTA, pH 7.4. ATP (1 mM final concentration) was added using a microinjector (20 μL/well) 10 s later the baseline recording and the readings were taken up to 50 s in 1 s intervals. The standard P2X7 inhibitor, A438079 (Sigma-Aldrich, St. Louis, MO, USA), was used as inhibitory control. Ionomycin (Sigma-Aldrich, St. Louis, MO, USA) and BHQ were used to generate a generic calcium signal in cells. 2,5,-di(t-butyl) hydroquinone (BHQ) was synthesized and kindly provided by Dr. Polonik S.N. (PIBOC FEBRAS). Fluo-8 was excited at 485 nm, and the emission at 520 nm was measured with a PHERAstar®FS plate reader (BMG LABTECH, Ortenberg, Germany). The data were processed by MARS Data Analysis v. 3.01R2 (BMG Labtech, Ortenberg, Germany). Mean values and standard error of peak height calcium were calculated.
as §2

P2X7 in Neuro-2a cells [3] = assay: ATP-induced YO-PRO-1 uptake (P2X7 pore formation); format: cell-based, mouse
Method: as §1
Neuro-2a cells were seeded in 96 well plates at a density of 4 × 10^4 cells/well and incubated in DMEM for 24 h, 37 °C, 5% CO2. Then the cells were washed once with HBSS and filled with 180 μL of the same buffer. YO-PRO-1 (Sigma-Aldrich, St. Louis, MO, USA, 5 μM final concentration) was loaded into the wells, the cells were incubated for 15 min at 37 °C. Further, the studied peptides were added to the cells at concentrations of 10, 1, 0.1 and 0.01 μM and incubated for 10 min at 37 °C. After that ATP (4 mM final concentration) was added and the plates were incubated for an additional 10 min. The standard P2X7R inhibitor, A438079 (Sigma-Aldrich, St. Louis, MO, USA), was used as inhibitory control. Then the cells were washed three times with the buffer solution and fluorescence intensity was measured with PHERAstar FS plate reader (BMG, LABTECH, Ortenberg, Germany) at λex = 485 nm and λem= 520 nm in the “End Point” mode. The effectiveness of compounds was evaluated relative to control without ATP.
as §2

[4] = system: spontaneously hypertensive rats; conditions: intracerebroventricular; ref [8]; cited from earlier work
Excerpt: (§4) Activated P2X7 has also been reported to alter reactive oxygen species (ROS) in microglia/macrophages as was shown, for example, in primary rat microglial cells. In cultured neurons of the dorsal horn of the spinal ...

[5] = system: pancreatic ductal adenocarcinoma cells; conditions: ref [31]; cited from earlier work
[6] = system: cultured neurons of the dorsal horn of the spinal cord; conditions: cited from earlier work
Excerpt: as §4

[7] = intrathecal; hind paw ipsilateral to the nerve injury; cited from earlier work
Excerpt: as §4

APHC3: recombinant Kunitz-type peptide from H. magnifica (=H. crispa), UniProtKB C0HJF3 (GSICLEPKVVGPCTAYFPRFYFNSETGKCTPFIYGGCEGNGNNFETLRACRGICRA; left off: thioredoxin, end not stated, cleaved)
protection from ATP-induced death (Neuro-2a cells; long-time application of ATP (4 mM, 48 h)): partially protected neuroblastoma cells from ATP-induced death | EC50 (TRPV1 receptor): ~0.018 µM | activity in models of inflammatory diseases ([1]; ex vivo and in vivo): potent activity | anti-inflammatory and analgesic activity [1]: significant anti-inflammatory and analgesic activity | reduction of calcium level (P2X7 in Neuro-2a cells [2]; 0.1 μM peptide, mean ± SE, n = 3): 53.2 ± 24.95% | reduction of calcium level (P2X7 in Neuro-2a cells [2]; 0.1–10 μM peptide): significantly reduced the calcium level | effect on Ca2+ influx (summary in discussion) (P2X7 in Neuro-2a cells [2]; short-term effect): a significant effect on Ca^2+ influx into cells | entry of YO-PRO-1 into cells (summary in discussion) (P2X7 in Neuro-2a cells [3]; short-term effect): regulating the entry of low molecular weight fluorescent dye YO-PRO-1 into cells

Cc1nc(N=Nc2ccc(S(=O)(=O)O)cc2S(=O)(=O)O)c(COP(=O)(O)O)c(C=O)c1O [PPADS]
infarct volume and number of irreversibly damaged cells [4]: reduced infarct volume and the number of irreversibly damaged cells

Clc1cccc(-c2nnnn2Cc2cccnc2)c1Cl [A438079, reference compound]
increase in cell viability compared with ATP alone (Neuro-2a cells; pre-incubation with 10 μM A438079, then 4 mM ATP, 48 h, mean ± SE, n = 3): 18.2 ± 2.8% | ATP-induced pore formation and cell death [5]: very modest effects on ATP-induced pore formation and cell death | inhibition of YO-PRO-1 dye penetration vs ATP alone (P2X7 in Neuro-2a cells [3]; 10 μM A438079 pre-incubation, 4 mM ATP, mean ± SE, n = 3): up to 32% | ATP-induced uptake of YO-PRO-1 (P2X7 in Neuro-2a cells [3]; 0.01–10 μM peptides or 10 μM A438079, 10 min pre-incubation, 4 mM ATP): attenuated dye accumulation | ATP or Bz-ATP-induced ROS production [6]: eliminated | mechanical hypersensitivity [7]: suppressed the development of mechanical hypersensitivity
